Experimental data reported in US9493477B2, “Compositions comprising enzyme-cleavable ketone-modified opioid prodrugs and optional inhibitors thereof” (priority 2009, dated 2016).
Like-named read-outs stand apart in the source and are kept apart here.

Columns and labels:
[1] = Pharmacokinetics following PO administration to rats (drug released into plasma from prodrug, or oxycodone); format: in vivo, rat; details: for oxycodone plasma concentrations compared to administration of oxycodone: PO prodrug versus PO oxycodone 10 mg/kg (Example 15)
Method: At specified time points, blood samples were drawn, harvested for plasma via centrifugation at 5,400 rpm at 4° C. for 5 min, and 100 microliters (μl) plasma transferred from each sample into a fresh tube containing 1 μl of formic acid. The tubes were vortexed for 5-10 seconds, immediately placed in dry ice and then stored until analysis by high performance liquid chromatography/mass spectrometry (HPLC/MS).
At specified time points, blood samples were drawn, harvested for plasma via centrifugation at 5,400 rpm at 4° C. for 5 min, and 100 microliters (μl) plasma transferred from each sample into a fresh tube containing 2 μl of 50% formic acid. The tubes were vortexed for 5-10 seconds, immediately placed in dry ice and then stored in −80° C. freezer until analysis by HPLC/MS.
At specified time points, blood samples were drawn, harvested for plasma via centrifugation at 5,400 rpm at 4° C. for 5 min, and 100 μl plasma transferred from each sample into a fresh tube containing 2 μl of 50% formic acid. The tubes were vortexed for 5-10 seconds, immediately placed in dry ice and then stored in −80° C. freezer until analysis by HPLC/MS.

[2] = Pharmacokinetics following IV administration of prodrug to rats; format: in vivo, rat
[3] = In vitro stability of prodrug to household chemicals and enzyme preparations; format: physicochemical; details: vodka, baking soda, WINDEX, vinegar (RT or 80° C.) and GNC Super Digestive, tenderizer, subtilisn (RT), 1 or 24 hr
Method: (§1) Samples were incubated as described and aliquots removed at 1 hr and 24 hr and stabilized by adding each to a solution of 50% or 100% of 85% phosphoric acid solution to achieve a final pH of less than or equal to pH 4. The stabilized aliquots were then diluted 4- to 6-fold with water, vortex-mixed and applied to HPLC.
as §1, with “described. Aliquots were” for “described and aliquots”

[4] = biological target: T1, trypsin from bovine pancreas (Bos taurus, UniProt P00760); assay: In vitro trypsin-mediated release of drug from prodrug, without or with trypsin inhibitor Compound 109; format: biochemical
T1 construct: purchased Sigma-Aldrich T8003; host or cells: bovine pancreas
T1 sequence (P00760 24-246): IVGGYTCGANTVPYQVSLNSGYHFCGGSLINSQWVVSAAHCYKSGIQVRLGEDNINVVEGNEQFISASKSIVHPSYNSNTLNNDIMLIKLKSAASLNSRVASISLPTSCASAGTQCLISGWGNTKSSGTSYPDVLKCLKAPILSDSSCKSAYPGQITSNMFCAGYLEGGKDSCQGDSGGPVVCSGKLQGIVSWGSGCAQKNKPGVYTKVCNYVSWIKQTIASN
Method: The reactions were conducted at 37° C. for 24 hr. Samples were collected at specified time points, transferred into 0.5% formic acid in acetonitrile to stop trypsin activity and stored at less than −70° C. until analysis by LC-MS/MS.
Other reaction and sample treatment conditions were as described above.

human μ-opioid receptor [5] = biological target: T2, human μ-opioid receptor (Homo sapiens, UniProt P35372); assay: In vitro human μ-opioid receptor binding assay ([3H]DAMGO, recombinant HEK-293 cells); details: from Table 8
[6] = In vivo tolerability of Compound KC-3 IV in rats; design: species or system rat; details: IV KC-3 71 mg/kg (97 μmol/kg), 4 rats dosed, observed up to 24 hours
Method: Male naïve Sprague-Dawley rats, 4 per dose, were used in the study. Rats were weighed, and then placed under a heat lamp for 15-20 minutes to dilate the lateral tail veins. […] Before dosing, rats were placed in Broome restrainers and the drug was introduced into one of the tail veins using a syringe and needle. […] Blood samples were collected 5 minutes post-dose via the saphenous vein. The rats were observed up to 24 hours.

human μ-opioid receptor [7] = biological target: T2, human μ-opioid receptor; format: cell-based; design: expressed in transfected cells; host or cells: CHO; details: Experiment 3; EC50 ratio, oxycodone or hydrocodone to its prodrug
Method: The control reaction included 1 μM DAMGO. The reaction mixtures were incubated at 37° C. for 10 min, and the reaction product was cyclic AMP (cAMP). The samples were submitted to homogeneous time resolved fluorescence (HTRF®). EC50 values (concentration producing a half-maximal specific response) were determined by non-linear regression fit using the Hillplot software.

[8] = rats, IV Compound KC-2 10 mg/kg or equimolar oxycodone, 15 minutes
[9] = 241 BAEE U trypsin/mL, no inhibitor
[10] = 4815 BAEE U trypsin/mL, no inhibitor

T2 sequence (P35372 whole entry): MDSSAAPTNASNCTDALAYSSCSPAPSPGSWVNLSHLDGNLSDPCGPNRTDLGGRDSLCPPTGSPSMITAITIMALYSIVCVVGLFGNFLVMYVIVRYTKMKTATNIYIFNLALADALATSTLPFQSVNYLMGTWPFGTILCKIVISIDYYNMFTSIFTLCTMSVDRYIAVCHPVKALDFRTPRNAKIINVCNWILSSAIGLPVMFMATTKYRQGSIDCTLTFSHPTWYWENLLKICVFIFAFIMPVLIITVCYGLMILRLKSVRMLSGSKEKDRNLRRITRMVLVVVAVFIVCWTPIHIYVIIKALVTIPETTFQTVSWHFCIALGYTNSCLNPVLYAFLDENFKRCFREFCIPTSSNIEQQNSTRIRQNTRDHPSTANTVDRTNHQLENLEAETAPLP

COc1ccc2c3c1O[C@H]1C(OC(=O)N(C)CCNC(=O)[C@H](CCCNC(=N)N)NC(C)=O)=CC[C@@]4(O)C(C2)N(C)CC[C@]314 [Compound KC-2, Oxycodone 6-(N-methyl-N-(2-N′-acetylarginylamino)) ethylcarbamate]
plasma concentrations of oxycodone versus Compound KC-2 dose ([1]; PO 1.3 to 50 mg/kg, Table 6, FIG. 9): increase proportionally | oxycodone plasma concentrations compared to administration of oxycodone [1]: suppressed Cmax and delayed Tmax | Cmax of Compound KC-2 in plasma ([2]; IV Compound KC-2 2 mg/kg, average ± sd, 4 rats): 2680 ± 755 ng/mL | conversion to oxycodone [3]: less than 10% | Rate of oxycodone formation ([4]; no trypsin inhibitor, 0.761 mM prodrug, 0.0228 mg/mL trypsin, 37° C.): 37.4 ± 0.9 umols/h/umol trypsin | relative plasma/CSF partitioning coefficient to oxycodone (fold less CSF penetrant than oxycodone) (Table 10, 439/3.8): about 116 fold | Compound conc. in Plasma (male, Sprague Dawley, rat, in vivo): 27,200 ng/mL | Compound conc. in CSF [8]: 61.9 ng/mL | Plasma/CSF partitioning coefficient [8]: 439 | affinity for the μ-opioid receptor, fold less than that of oxycodone (human μ-opioid receptor [5]): about 2 fold

COc1ccc2c3c1O[C@H]1C(OC(=O)N(C)CCNC(=O)[C@H](CCCNC(=N)N)NC(=O)CC(=O)O)=CC[C@@]4(O)[C@@H](C2)N(C)CC[C@]314 [Compound KC-3, N—{(S)-4-guanidino-1-[2-(methyl-[(5R,9R,13S,14S)-4,5a-epoxy-6,7-didehydro-14-hydroxy-3-methoxy-17-methylmorphinan-6-oxy]carbonyl-amino)-ethylcarbamoyl]-butyl}-malonamic acid]
plasma concentrations of oxycodone versus Compound KC-3 dose ([1]; PO 1.4 to 46 mg/kg, Table 11, FIG. 11): increase proportionally | Rate of oxycodone formation [4, 9]: 0.0684 ± 0.0009 umol/h/ BAEE U | Clinical observations [6]: 2 normal and 2 with ataxia which | relative plasma/CSF partitioning coefficient to oxycodone (fold less CSF penetrant than oxycodone) (Table 15, 1,737/4.8): about 364 fold

COc1ccc2c3c1OC1C(OC(=O)N(C)CCNC(=O)C(CCCNC(=N)N)NC(=O)CC(=O)O)=CCC4C(C2)N(C)CCC314 [Compound KC-4, N—((S)-1-{2-[(Dihydrocodein-6-enyloxycarbonyl)-methylamino]-ethylcarbamoyl-4-guanidino}-butyl)-malonamic acid]
KC-4 Cmax ± sd ([2]; IV KC-4 2 mg/kg ([…])): 3960 ± 570 ng/mL | Rate of hydrocodone formation [4, 9]: 0.0911 ± 0.015 umol/h/ BAEE U | Rate of hydrocodone formation [4, 10]: 0.0137 ± 0.0014 umol/h/ BAEE U | Drug/prodrug relative potency (human μ-opioid receptor [7]): 15

COc1ccc2c3c1O[C@H]1C(OC(=O)N(CCCCCC(=O)O)CCNC(=O)[C@H](CCCNC(=N)N)NC(C)=O)=CC[C@@]4(O)[C@@H](C2)N(C)CC[C@]314 [Compound KC-5, 6-{[2-(2-Acetylamino-5-guanidino-pentanoylamino)-ethyl]-[(5R,9R,13S,14S)-4,5a-epoxy-6,7-didehydro-14-hydroxy-3-methoxy-17-methylmorphinan-6-oxy]-1-enyloxycarbonyl-amino}-hexanoic acid]
oxycodone plasma concentrations compared to administration of oxycodone [1]: suppressed Cmax and AUC and delayed Tmax | Rate of oxycodone formation [4, 9]: 0.135 ± 0.005 umol/h/ BAEE U | relative plasma/CSF partitioning coefficient to oxycodone (fold less CSF penetrant than oxycodone) (Table 22, 1,508/4.8): about 316 fold

COc1ccc2c3c1O[C@H]1C(OC(=O)N(C)C[C@H](NC(=O)[C@H](CCCNC(=N)N)NC(C)=O)C(=O)N(C)CC(=O)O)=CC[C@@]4(O)[C@@H](C2)N(C)CC[C@]314 [Compound KC-6]
oxycodone plasma concentrations compared to administration of oxycodone [1]: suppressed Cmax and AUC and delayed Tmax | Rate of oxycodone formation [4, 9]: 0.0118 ± 0.0042 umol/h/ BAEE U | Rate of oxycodone formation [4, 10]: 0.00571 ± 0.0002 umol/h/ BAEE U | relative plasma/CSF partitioning coefficient to oxycodone (fold less CSF penetrant than oxycodone) (Table 25, 815/4.8): about 171 fold
